29 compounds from US10745361B2, “Piperazine derivatives having multimodal activity against pain” (ESTEVE PHARMACEUTICALS, S.A., priority 2013, dated 2020) can be followed below.

The assay deals with human σ1 receptor and human μ-opioid receptor. The assay is described as follows: Human σ1 receptor radioligand assay and human μ-opioid receptor radioligand assay (μ and σ1 dual binding). The arrangement: key to μ and σ1 dual binding: +: Both Ki-μ and Ki-σ1>=500 nM; ++: One K, <500 nM while the other K, is >=500 nM; +++: Both Ki-μ and Ki-σ1<500 nM; ++++: Both Ki-μ and Ki-σ1<100 nM. The settings on record: one class for both Ki: σ1 ([3H](+)-pentazocine, transfected HEK-293 membranes) and μ-opioid ([3H]-DAMGO, transfected CHO-K1 membranes). Here is the method:
Human σ1 Receptor Radioligand Assay
To investigate binding properties of σ1 receptor ligands to human σ1 receptor, transfected HEK-293 membranes and [^3H](+)-pentazocine (Perkin Elmer, NET-1056), as the radioligand, were used. The assay was carried out with 7 μg of membrane suspension, 5 nM of [^3H](+)-pentazocine in either absence or presence of either buffer or 10 μM Haloperidol for total and non-specific binding, respectively. Binding buffer contained Tris-HCl 50 mM at pH 8. Plates were incubated at 37° C. for 120 minutes. After the incubation period, the reaction mix was then transferred to MultiScreen HTS, FC plates (Millipore), filtered and plates were washed 3 times with ice-cold 10 mM Tris-HCL (pH7.4). Filters were dried and counted at approximately 40% efficiency in a MicroBeta scintillation counter (Perkin-Elmer) using EcoScint liquid scintillation cocktail
Human μ-Opioid Receptor Radioligand Assay
To investigate binding properties of p-opioid receptor ligands to human p-opioid receptor, transfected CHO-K1 cell membranes and [^3H]-DAMGO (Perkin Elmer, ES-542-C), as the radioligand, were used. The assay was carried out with 20 μg of membrane suspension, 1 nM of [^3H]-DAMGO in either absence or presence of either buffer or 10 μM Naloxone for total and non-specific binding, respectively. Binding buffer contained Tris-HCl 50 mM, MgCl2 5 mM at pH 7.4. Plates were incubated at 27° C. for 60 minutes. After the incubation period, the reaction mix was then transferred to MultiScreen HTS, FC plates (Millipore), filtered and plates were washed 3 times with ice-cold 10 mM Tris-HCL (pH 7.4). Filters were dried and counted at approximately 40% efficiency in a MicroBeta scintillation counter (Perkin-Elmer) using
EcoScint liquid scintillation cocktail.
The following scale as been adopted for representing the binding to the σ1 receptor and the μ-opiod receptor expressed as Ki: • + Both Ki-μ and Ki-σ1>=500 nM • ++ One K, <500 nM while the other K, is >=500 nM • +++ Both Ki-μ and Ki-σ1<500 nM • ++++ Both Ki-μ and Ki-σ1<100 nM
One may read the Ki as the equilibrium dissociation constant of an inhibitor or competing ligand from its target. For the compound `CC(C)S(=O)(=O)Nc1cccc(N(C)C2CCN(Cc3cn(-c4ccccc4)nn3)C2)c1` (centres unmarked) [Example 26, N-(3-(methyl(1-((1-phenyl-1H-1,2,3-triazol-4-yl)methyl)pyrrolidin-3-yl)amino)phenyl)propane-2-sulfonamide], the inhibitory constant (Ki) was below 100 nM.
Consider `CC(C)S(=O)(=O)Nc1cccc(N2CCN(Cc3cn(-c4cccc(F)c4)nn3)CC2)c1` [Example 27, N-(3-(4-((1-(3-fluorophenyl)-1H-1,2,3-triazol-4-yl)methyl)piperazin-1-yl)phenyl)propane-2-sulfonamide], for which the inhibition constant Ki is below 100 nM.
The compound `CC(C)S(=O)(=O)Nc1cccc(N2CCN(Cc3cn(-c4ccc(F)cc4)nn3)CC2)c1` [Example 28, N-(3-(4-((1-(4-fluorophenyl)-1H-1,2,3-triazol-4-yl)methyl)piperazin-1-yl)phenyl)propane-2-sulfonamide] had a Ki below 500 nM.
Turning to `CC(C)S(=O)(=O)Nc1cccc(N2CCN(Cc3cn(-c4cccc(F)n4)nn3)CC2)c1` [Example 29, N-(3-(4-((1-(6-fluoropyridin-2-yl)-1H-1,2,3-triazol-4-yl)methyl)piperazin-1-yl)phenyl)propane-2-sulfonamide], the Ki is below 500 nM.
Regarding `CC(C)S(=O)(=O)Nc1cccc(N2CC3CN(Cc4cn(-c5ccccc5)nn4)CC3C2)c1` (centres unmarked) [Example 30, N-(3-(5-((1-phenyl-1H-1,2,3-triazol-4-yl)methyl)hexahydropyrrolo[3,4-c]pyrrol-2(1H)-yl)phenyl)propane-2-sulfonamide], the inhibition constant (Ki) was below 100 nM.
Regarding `Nc1cccc(N2CCN(Cc3cn(-c4ccccc4)nn3)CC2)c1` [Example 31, 3-(4-((1-phenyl-1H-1,2,3-triazol-4-yl)methyl)piperazin-1-yl)aniline], the Ki is at least 500 nM.
As for `CC(C)(C)NS(=O)(=O)c1cccc(N2CCN(Cc3cn(-c4ccccc4)nn3)CC2)c1` [Example 32, N-tert-butyl-3-(4-((1-phenyl-1H-1,2,3-triazol-4-yl)methyl)piperazin-1-yl)benzenesulfonamide], the “μ and σ1 dual binding” value is on record as “++”.
Consider `CS(=O)(=O)Nc1cccc(N2CCN(Cc3cnn(-c4ccccc4)c3)CC2)c1` [Example 33, N-(3-(4-((1-phenyl-1H-pyrazol-4-yl)methyl)piperazin-1-yl)phenyl)methanesulfonamide], for which the Ki was below 100 nM.
For the compound `CS(=O)(=O)Nc1cccc(N2CCN(Cc3cnn(Cc4ccccc4)c3)CC2)c1` [Example 34, N-(3-(4-((1-benzyl-1H-pyrazol-4-yl)methyl)piperazin-1-yl)phenyl)methanesulfonamide], the inhibition constant Ki is below 500 nM.
Take `CS(=O)(=O)Nc1cccc(N2CCN(Cc3cnn(Cc4ccccn4)c3)CC2)c1` [Example 35, N-(3-(4-((1-(pyridin-2-ylmethyl)-1H-pyrazol-4-yl)methyl)piperazin-1-yl)phenyl)methanesulfonamide]: the “μ and σ1 dual binding” value is “++”.
`CC(C)S(=O)(=O)Nc1cccc(N2CCN(Cc3cnn(-c4ccccc4)c3)CC2)c1` [Example 36, N-(3-(4-((1-phenyl-1H-pyrazol-4-yl)methyl)piperazin-1-yl)phenyl)propane-2-sulfonamide] displayed a Ki below 100 nM.
For the compound `Oc1cccc(N2CCN(Cc3cnn(-c4ccccc4)c3)CC2)c1` [Example 37, 3-(4-((1-phenyl-1H-pyrazol-4-yl)methyl)piperazin-1-yl)phenol], the inhibitory constant (Ki) was below 100 nM.
`CS(=O)(=O)Nc1cccc(N2CCN(Cc3cnn(-c4ccccn4)c3)CC2)c1` [Example 38, N-(3-(4-((1-(pyridin-2-yl)-1H-pyrazol-4-yl)methyl)piperazin-1-yl)phenyl)methanesulfonamide] gave a Ki below 500 nM.
Same read-out and setting: the same measure for `CC(C)S(=O)(=O)Nc1cccc(N2CCN(Cc3cnn(-c4ccccn4)c3)CC2)c1` [Example 39, N-(3-(4-((1-(pyridin-2-yl)-1H-pyrazol-4-yl)methyl)piperazin-1-yl)phenyl)propane-2-sulfonamide]: below 100 nM; for `CC(C)S(=O)(=O)Nc1cccc(N2CCN(Cc3cn(Cc4ccccc4)cn3)CC2)c1` [Example 40, N-(3-(4-((1-benzyl-1H-imidazol-4-yl)methyl)piperazin-1-yl)phenyl)propane-2-sulfonamide]: below 500 nM.
Regarding `CS(=O)(=O)Nc1cccc(N2CCN(Cc3cn(-c4ccccc4)nn3)CC2)n1` [Example 41, N-(6-(4-((1-phenyl-1H-1,2,3-triazol-4-yl)methyl)piperazin-1-yl)pyridin-2-yl)methanesulfonamide], the “μ and σ1 dual binding” value was “++”.
As for `CC(C)S(=O)(=O)Nc1cccc(N2CCN(Cc3cn(-c4ccccc4)nn3)CC2)n1` [Example 42, N-(6-(4-((1-phenyl-1H-1,2,3-triazol-4-yl)methyl)piperazin-1-yl)pyridin-2-yl)propane-2-sulfonamide], the Ki is below 500 nM.
In the case of `CC(C)S(=O)(=O)Nc1cccc(N2CCN(Cc3cn(-c4ccccc4F)nn3)CC2)n1` [Example 43, N-(6-(4-((1-(2-fluorophenyl)-1H-1,2,3-triazol-4-yl)methyl)piperazin-1-yl)pyridin-2-yl)propane-2-sulfonamide], the “μ and σ1 dual binding” value is listed as “++”.
Take `O=S(=O)(Nc1cccc(N2CCN(Cc3cn(-c4ccccc4F)nn3)CC2)n1)C1CC1` [Example 44, N-(6-(4-((1-(2-fluorophenyl)-1H-1,2,3-triazol-4-yl)methyl)piperazin-1-yl)pyridin-2-yl)cyclopropanesulfonamide]: the Ki was below 500 nM.
Regarding `CCC(=O)Nc1cccc(N2CCN(Cc3cn(-c4ccccc4F)nn3)CC2)n1` [Example 45, N-(6-(4-((1-(2-fluorophenyl)-1H-1,2,3-triazol-4-yl)methyl)piperazin-1-yl)pyridin-2-yl)propionamide], the “μ and σ1 dual binding” value is recorded as “++”.
For the compound `CC(C)S(=O)(=O)Nc1cccc(N2CCN(Cc3cn(-c4ccccc4O)nn3)CC2)n1` [Example 46, N-(6-(4-((1-(2-hydroxyphenyl)-1H-1,2,3-triazol-4-yl)methyl)piperazin-1-yl)pyridin-2-yl)propane-2-sulfonamide], the “μ and σ1 dual binding” value was “++”.
Turning to `CC(C)S(=O)(=O)Nc1cccc(N2CCN(Cc3cnn(-c4ccccn4)c3)CC2)n1` [Example 47, N-(6-(4-((1-(pyridin-2-yl)-1H-pyrazol-4-yl)methyl)piperazin-1-yl)pyridin-2-yl)propane-2-sulfonamide], the inhibition constant (Ki) was below 500 nM.
For the compound `CC(C)S(=O)(=O)Nc1cccc(N2CCN(Cc3cn(-c4c(F)cccc4F)nn3)CC2)n1` [Example 48, N-(6-(4-((1-(2,6-difluorophenyl)-1H-1,2,3-triazol-4-yl)methyl)piperazin-1-yl)pyridin-2-yl)propane-2-sulfonamide], the “μ and σ1 dual binding” value is listed as “++”.
As for `CC(C)S(=O)(=O)Nc1cccc(N2CCN(Cc3cn(-c4ccc(F)c(F)c4)nn3)CC2)n1` [Example 49, N-(6-(4-((1-(3,4-difluorophenyl)-1H-1,2,3-triazol-4-yl)methyl)piperazin-1-yl)pyridin-2-yl)propane-2-sulfonamide], the “μ and σ1 dual binding” value is “++”.
Same read-out and setting: with `CC(C)S(=O)(=O)Nc1cccc(N2CCN(Cc3cn(-c4ccc(Cl)cc4F)nn3)CC2)n1` [Example 50, N-(6-(4-((1-(4-chloro-2-fluorophenyl)-1H-1,2,3-triazol-4-yl)methyl)piperazin-1-yl)pyridin-2-yl)propane-2-sulfonamide] the entry was “++”.
In turn, `O=S(=O)(Nc1cccc(N2CCN(Cc3cn(-c4ccccc4)nn3)CC2)n1)C1CC1` [Example 51, N-(6-(4-((1-phenyl-1H-1,2,3-triazol-4-yl)methyl)piperazin-1-yl)pyridin-2-yl)cyclopropanesulfonamide] came in with a Ki below 500 nM.
The same measure, in the same setting: the same measure for `CC(C)S(=O)(=O)Nc1ccc(Cl)c(N2CCN(Cc3cn(-c4ccccc4)nn3)CC2)n1` [Example 52, N-(5-chloro-6-(4-((1-phenyl-1H-1,2,3-triazol-4-yl)methyl)piperazin-1-yl)pyridin-2-yl)propane-2-sulfonamide]: below 500 nM.
The compound `CC(C)S(=O)(=O)Nc1cccc(N2CC3CN(Cc4cn(-c5ccccc5)nn4)CC3C2)n1` (centres unmarked) [Example 53, N-(6-(5-((1-phenyl-1H-1,2,3-triazol-4-yl)methyl)hexahydropyrrolo[3,4-c]pyrrol-2(1H)-yl)pyridin-2-yl)propane-2-sulfonamide] came in with a Ki below 500 nM.
Consider `CC(C)S(=O)(=O)Nc1cccc(N2CC3CN(Cc4cn(Cc5ccccc5)nn4)CC3C2)n1` (centres unmarked) [Example 54, N-(6-(5-((1-benzyl-1H-1,2,3-triazol-4-yl)methyl)hexahydropyrrolo[3,4-c]pyrrol-2(1H)-yl)pyridin-2-yl)propane-2-sulfonamide], for which the “μ and σ1 dual binding” value is on record as “++”.
